The record followed here is PMC9519446, “Discovery of an Orally Active Benzoxaborole Prodrug Effective in the Treatment of Chagas Disease in Non-human Primates” (Nature microbiology, 2022).

Structures are written as SMILES.

The subject of this assay is metallocarboxypeptidase 2 disrupted T. cruzi intracellular amastigote. Put plainly: Intracellular amastigote assay with metallocarboxypeptidase 2 (TcCLB.504045.60) disrupted T. cruzi. It is filed as cell-based, Trypanosoma cruzi. As to conditions: Fig. S1. The source says:
activity of AN14353 on intracellular amastigote (b). Representative microphotographs of assays repeated at least three times are shown. Data are presented as mean values +/- SEM; n= 3 […]
(1 picture or pasted object on this page, not shown here)

Turning to `Cc1c(C(=O)NC(C(=O)OCc2ccc(F)c(F)c2)C(C)C)ccc2c1B(O)OC2` (stereo not shown) [AN14353], the “impact of metallocarboxypeptidase 2 disruption on activity” value was “Lack of impact”.
